Laboratory results: PubChem BioAssay (NCI)
Where “and” joins values, the source holds several entries; their conditions need not be identical. Equal entries are not always repeated.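 All cell lines were grown in 96-well plates and treated with compound for 48 hours. GI50 is the concentration that inhibits growth by half. Definition used: TGI = concentration required for complete inhibition of growth.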 Calls of active or inactive are those of the source. No stated cut-off is given here; in the data, active means GI50 below about 0.43 µM; inactive means the rest.

Each molecule was assayed on DLD-1 colon (assay: inhibition of tumour cell growth, NCI panel, 48 h).
c1ccc2c(c1)CCC/C2=N\OCC1CO1 (stereo unspecified) was tested, and the TGI was > 100 µM. CC/C(C)=C1\CCC(CN2CCOCC2)C1=O (stereo unspecified) gave a TGI of 27 µM. COC(=O)C1C(C(=O)OC)C2(OC)c3ccccc3-c3ccccc3C12 (stereo unspecified) was tested, and the TGI was > 100 µM. In the case of O=C1OC(CC(=O)c2ccc(Cl)c(Cl)c2)C(Cl)=C1Cl (stereo unspecified), the TGI is reported as > 100 µM. For CCN(CC)CC(O)CNc1ccc(NCC2CO2)c2c1C(=O)c1ccccc1C2=O (stereo unspecified), the TGI was 10.7 µM. CC(=O)c1cccc(N2COC(C)(C)c3nc4ccccc4n3C2)c1 was tested, and the TGI was > 100 µM. Work on O=[N+]([O-])c1cccc(C2N3CCCCC3[C@@H]3c4[nH]c5ccccc5c4CCN23)c1 (stereo partly specified) yielded a TGI of 29.2 µM. Cc1c[nH]c2c(O)cc3c(c12)[C@H](CCl)CN3C(=O)c1cc2cc(NC(=O)Nc3ccc4[nH]c(C(=O)N5C[C@@H](CCl)c6c5cc(O)c5[nH]cc(C)c65)cc4c3)ccc2[nH]1 was tested, and the GI50 was 0.000887 ng/mL and 1.4 ng/mL. In the case of CCOC(=O)NC(=O)c1cn(CC(=O)NCC(=O)NCC(=O)NCCCN2CCN(CCCNC(=O)CNC(=O)CNC(=O)Cn3cc(C(=O)NC(=O)OCC)c(=O)[nH]c3=O)CC2)c(=O)[nH]c1=O, the TGI is reported as > 100 µM. Molecule CCN(CC)CCCC(C)Nc1c2ccc(Cl)cc2nc2ccc(OC)cc12 (stereo unspecified) has a TGI of 4.39 µM. For CC[C@@H]1OC2(C)CC(S(=O)(=O)c3ccccc3O)CC1O2 (stereo partly specified), the TGI was > 100 µM. With CCOC(=O)C(N)C[S][Sn]([CH3])([CH3])[Cl] (stereo unspecified) the GI50 was > 100 µM and the TGI was > 100 µM. In the case of NNC(=O)/C(=C/c1ccc(Cl)c(Cl)c1)NC(=O)c1ccccc1, the TGI is reported as > 100 µM. In the case of CC(=O)OCC1OC(N2C(=O)C(=O)c3cc(C)ccc32)C(OC(C)=O)C(OC(C)=O)C1OC(C)=O (stereo unspecified), the TGI is reported as > 100 µM. For O=C1c2ccccc2-c2cccc3ccc(Cc4ccc5ccccc5c4)c1c23, the TGI was > 100 µM. COc1cc(Cl)c2c3c(c(C(C)=O)oc13)CCC2 was tested, and the TGI was > 100 µM. In the case of CC(=O)Nc1ccc(C(=O)NN2C(=O)C(Cl)C2c2ccc(Cl)cc2)cc1 (stereo unspecified), the TGI is reported as > 100 µM. COc1ccc([N+]2=NC(c3ccc([N+](=O)[O-])cc3)=NN(c3ccccc3)C2)cc1 was tested, and the TGI was > 100 µM. With C=CC1(C(=O)O)CCC(C(C)(C)C)CC1 (stereo unspecified) the TGI was > 100 µM. With NC(=O)C(=Cc1ccc(C(O)P(=O)(O)O)cc1)C(N)=O (stereo unspecified) the TGI was > 100 µM. In the case of O=C(Nc1cc(Cl)c(Cl)cc1Cl)C(=O)C1C=CCS1(=O)=O (stereo unspecified), the TGI is reported as > 100 µM. CCNC(=O)CCN(C(=O)O)S(=O)(=O)c1ccc(NC(=O)c2ccccc2)cc1 was tested, and the TGI was > 100 µM. For O=C(/C=C/c1ccc([N+](=O)[O-])o1)N1CCN(Cc2ccccc2)CC1, the TGI was 19.7 µM. For CC1C[C@@]2(c3ccccc3)C(=O)CCC[C@H]2N1 (stereo partly specified), the TGI was > 100 µM. In the case of O=[N+]([O-])c1cccc(/C=N\NS(=O)(=O)c2ccc(Cl)cc2)c1O, the TGI is reported as > 100 µM. With CC1=C(C(=O)Nc2ccccc2C)C(c2ccc(Cl)c(Cl)c2)C(C(=O)Nc2ccccc2C)=C(C)N1 the TGI was > 100 µM. CCCCOC(=O)NC(=O)c1cn(CCCOC(=O)CCCCCCCCC(=O)OCCCn2cc(C(=O)NC(=O)OCCCC)c(=O)[nH]c2=O)c(=O)[nH]c1=O was tested, and the TGI was > 100 µM. In the case of Cc1[nH]c2ccccc2c1C1Cc2ccccc2N1C(=O)/C=C\C(=O)O (stereo unspecified), the TGI is reported as > 100 µM. For CCOC(=O)Nc1nc2ccc(Cn3cccc3)cc2[nH]1, the TGI was > 100 µM.

These molecules were tested on KM20L2 colon (assay: inhibition of tumour cell growth, NCI panel, 48 h).
For c1ccc2c(c1)CCC/C2=N\OCC1CO1 (stereo unspecified), the TGI was > 100 µM. Molecule CC/C(C)=C1\CCC(CN2CCOCC2)C1=O (stereo unspecified) has a TGI of 36.7 µM. COC(=O)C1C(C(=O)OC)C2(OC)c3ccccc3-c3ccccc3C12 (stereo unspecified) gave a TGI of 87.9 µM. With O=C1OC(CC(=O)c2ccc(Cl)c(Cl)c2)C(Cl)=C1Cl (stereo unspecified) the TGI was > 100 µM. CCN(CC)CC(O)CNc1ccc(NCC2CO2)c2c1C(=O)c1ccccc1C2=O (stereo unspecified) gave a TGI of 8.63 µM. For CC(=O)c1cccc(N2COC(C)(C)c3nc4ccccc4n3C2)c1, the TGI was > 100 µM. Molecule O=[N+]([O-])c1cccc(C2N3CCCCC3[C@@H]3c4[nH]c5ccccc5c4CCN23)c1 (stereo partly specified) has a TGI of 22.9 µM. In the case of Cc1c[nH]c2c(O)cc3c(c12)[C@H](CCl)CN3C(=O)c1cc2cc(NC(=O)Nc3ccc4[nH]c(C(=O)N5C[C@@H](CCl)c6c5cc(O)c5[nH]cc(C)c65)cc4c3)ccc2[nH]1, the outcome is reported as “inactive”. With CCOC(=O)NC(=O)c1cn(CC(=O)NCC(=O)NCC(=O)NCCCN2CCN(CCCNC(=O)CNC(=O)CNC(=O)Cn3cc(C(=O)NC(=O)OCC)c(=O)[nH]c3=O)CC2)c(=O)[nH]c1=O the TGI was > 100 µM. In the case of CCN(CC)CCCC(C)Nc1c2ccc(Cl)cc2nc2ccc(OC)cc12 (stereo unspecified), the TGI is reported as 3 µM. With O=S(=O)(N/N=C/c1ccc(/C=N/NS(=O)(=O)c2ccccc2)cc1)c1ccccc1 the TGI was > 100 µM. In the case of CC[C@@H]1OC2(C)CC(S(=O)(=O)c3ccccc3O)CC1O2 (stereo partly specified), the TGI is reported as > 100 µM. In the case of CCOC(=O)C(N)C[S][Sn]([CH3])([CH3])[Cl] (stereo unspecified), the GI50 is reported as > 100 µM and the TGI is reported as > 100 µM. In the case of NNC(=O)/C(=C/c1ccc(Cl)c(Cl)c1)NC(=O)c1ccccc1, the TGI is reported as > 100 µM. With CC(=O)OCC1OC(N2C(=O)C(=O)c3cc(C)ccc32)C(OC(C)=O)C(OC(C)=O)C1OC(C)=O (stereo unspecified) the TGI was > 100 µM. In the case of O=C1c2ccccc2-c2cccc3ccc(Cc4ccc5ccccc5c4)c1c23, the TGI is reported as > 100 µM. With COc1cc(Cl)c2c3c(c(C(C)=O)oc13)CCC2 the TGI was > 100 µM. For CCCCc1c2c(nc3c1CCC/C3=C\c1ccccc1)C(=O)CCC2, the TGI was 41.7 µM. In the case of COc1ccc([N+]2=NC(c3ccc([N+](=O)[O-])cc3)=NN(c3ccccc3)C2)cc1, the TGI is reported as > 100 µM. In the case of C=CC1(C(=O)O)CCC(C(C)(C)C)CC1 (stereo unspecified), the TGI is reported as > 100 µM. NC(=O)C(=Cc1ccc(C(O)P(=O)(O)O)cc1)C(N)=O (stereo unspecified) was tested, and the TGI was > 100 µM. In the case of O=C(Nc1cc(Cl)c(Cl)cc1Cl)C(=O)C1C=CCS1(=O)=O (stereo unspecified), the TGI is reported as > 100 µM. In the case of CCNC(=O)CCN(C(=O)O)S(=O)(=O)c1ccc(NC(=O)c2ccccc2)cc1, the TGI is reported as > 100 µM. Work on O=C(/C=C/c1ccc([N+](=O)[O-])o1)N1CCN(Cc2ccccc2)CC1 yielded a TGI of 24.3 µM. With CC1C[C@@]2(c3ccccc3)C(=O)CCC[C@H]2N1 (stereo partly specified) the TGI was > 100 µM. With O=[N+]([O-])c1cccc(/C=N\NS(=O)(=O)c2ccc(Cl)cc2)c1O the TGI was > 100 µM. Molecule CC1=C(C(=O)Nc2ccccc2C)C(c2ccc(Cl)c(Cl)c2)C(C(=O)Nc2ccccc2C)=C(C)N1 has a TGI of 34.8 µM. CCCCOC(=O)NC(=O)c1cn(CCCOC(=O)CCCCCCCCC(=O)OCCCn2cc(C(=O)NC(=O)OCCCC)c(=O)[nH]c2=O)c(=O)[nH]c1=O was tested, and the TGI was > 100 µM. For Cc1[nH]c2ccccc2c1C1Cc2ccccc2N1C(=O)/C=C\C(=O)O (stereo unspecified), the TGI was > 100 µM. In the case of CCOC(=O)Nc1nc2ccc(Cn3cccc3)cc2[nH]1, the TGI is reported as 12.9 µM.
